This is an account of results in PMC3501500, “Conformational Selection Underlies Recognition of a Molybdoenzyme by Its Dedicated Chaperone” (PLoS ONE, 2012).

The test system of assay [1] is NarJ. The conditions noted are these: NMR; isolated NarG(1–15) peptide vs NarJ-bound; ref [18]; cited from earlier work.
Assay [2] addresses T1, NarG(1–15) peptide (Escherichia coli, UniProt P09152).
T1 sequence (P09152 whole entry, looked up): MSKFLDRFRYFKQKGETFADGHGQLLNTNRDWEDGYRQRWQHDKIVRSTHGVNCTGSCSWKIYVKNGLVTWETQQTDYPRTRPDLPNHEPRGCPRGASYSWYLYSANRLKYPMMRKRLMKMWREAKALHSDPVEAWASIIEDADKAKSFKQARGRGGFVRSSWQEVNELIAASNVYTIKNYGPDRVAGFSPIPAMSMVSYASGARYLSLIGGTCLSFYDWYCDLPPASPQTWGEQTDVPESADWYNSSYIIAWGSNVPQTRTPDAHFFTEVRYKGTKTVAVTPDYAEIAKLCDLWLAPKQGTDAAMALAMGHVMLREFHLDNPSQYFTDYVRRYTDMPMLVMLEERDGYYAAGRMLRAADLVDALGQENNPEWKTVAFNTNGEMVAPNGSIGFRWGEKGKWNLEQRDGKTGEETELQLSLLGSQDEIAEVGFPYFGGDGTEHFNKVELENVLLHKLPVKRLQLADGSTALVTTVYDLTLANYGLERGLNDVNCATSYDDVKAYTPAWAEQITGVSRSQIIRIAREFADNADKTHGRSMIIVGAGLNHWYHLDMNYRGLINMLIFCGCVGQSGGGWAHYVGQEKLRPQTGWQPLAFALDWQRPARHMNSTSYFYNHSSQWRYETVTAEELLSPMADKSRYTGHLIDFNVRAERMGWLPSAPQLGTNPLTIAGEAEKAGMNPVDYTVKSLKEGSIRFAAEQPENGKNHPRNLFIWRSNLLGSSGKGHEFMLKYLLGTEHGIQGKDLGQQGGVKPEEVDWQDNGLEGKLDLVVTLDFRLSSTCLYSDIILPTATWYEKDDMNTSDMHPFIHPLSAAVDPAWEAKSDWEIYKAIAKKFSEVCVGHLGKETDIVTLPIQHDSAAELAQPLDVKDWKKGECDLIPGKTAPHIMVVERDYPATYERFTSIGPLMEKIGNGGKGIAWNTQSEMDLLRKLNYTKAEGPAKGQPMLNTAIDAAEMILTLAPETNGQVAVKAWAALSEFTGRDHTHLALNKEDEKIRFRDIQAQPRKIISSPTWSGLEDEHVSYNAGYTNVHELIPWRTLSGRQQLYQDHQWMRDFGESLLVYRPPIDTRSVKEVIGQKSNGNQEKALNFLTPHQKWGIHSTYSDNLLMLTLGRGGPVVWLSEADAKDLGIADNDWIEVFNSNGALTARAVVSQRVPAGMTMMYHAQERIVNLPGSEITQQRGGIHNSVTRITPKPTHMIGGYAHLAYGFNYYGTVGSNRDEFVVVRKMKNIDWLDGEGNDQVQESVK
The conditions noted are these: 2 µM NarJT, 50 mM Tris-HCl pH 7.5, 1 mM MgCl2, 296 K; peptide stock 50 µM.
Procedure: Tryptophan fluorescence spectroscopy
Increasing concentrations of NarG(1–15) peptide at 50 µM (initial concentration) were then added and the emission fluorescence was scanned. Excitation was at 285 nm and emission was recorded from 310 to 410 nm with excitation and emission band-passes at 2 nm. […] Dissociation constants were calculated by plotting relative fluorescence peak integration against ligand concentration and curve-fitting using Origin software.
Indicated values are the average of at least three independent measurements.

Take “NarG(1–15) peptide: N-terminal NarG peptide, first 15 residues, chemically synthesized and purified by Synprosis (MSKFLDRFRYFKQKG; UniProt P09152 1-15, looked up, fragment)”: the “structure of peptide upon NarJ binding (in words)” value in assay [1] is reported as “remains unchanged upon NarJ binding”. The “maximal decrease of the tryptophan fluorescence of NarJT upon peptide addition” value in assay [2] turned out to be 30%.
